Consider one molecule from ChEMBL document CHEMBL2074418, “Limited oral bioavailability and active epithelial excretion of paclitaxel (Taxol) caused by P-glycoprotein in the intestine” (Proc Natl Acad Sci U S A, 1997).

The structures appear in SMILES notation.

In data set [1] the target is T1, ATP-dependent translocase ABCB1 (Mus musculus, UniProt P21447). In words: TP_TRANSPORTER: increase in plasma concentration in mdr1a(-/-) mouse. As to conditions: in vivo. The data set is classed as functional, organism-based.
For data set [2], the target named is T1, ATP-dependent translocase ABCB1. In words: TP_TRANSPORTER: increase in bioavailability in mdr1a(-/-) mouse. It counts as functional, organism-based. As to conditions: in vivo.

T1 sequence (P21447 whole entry): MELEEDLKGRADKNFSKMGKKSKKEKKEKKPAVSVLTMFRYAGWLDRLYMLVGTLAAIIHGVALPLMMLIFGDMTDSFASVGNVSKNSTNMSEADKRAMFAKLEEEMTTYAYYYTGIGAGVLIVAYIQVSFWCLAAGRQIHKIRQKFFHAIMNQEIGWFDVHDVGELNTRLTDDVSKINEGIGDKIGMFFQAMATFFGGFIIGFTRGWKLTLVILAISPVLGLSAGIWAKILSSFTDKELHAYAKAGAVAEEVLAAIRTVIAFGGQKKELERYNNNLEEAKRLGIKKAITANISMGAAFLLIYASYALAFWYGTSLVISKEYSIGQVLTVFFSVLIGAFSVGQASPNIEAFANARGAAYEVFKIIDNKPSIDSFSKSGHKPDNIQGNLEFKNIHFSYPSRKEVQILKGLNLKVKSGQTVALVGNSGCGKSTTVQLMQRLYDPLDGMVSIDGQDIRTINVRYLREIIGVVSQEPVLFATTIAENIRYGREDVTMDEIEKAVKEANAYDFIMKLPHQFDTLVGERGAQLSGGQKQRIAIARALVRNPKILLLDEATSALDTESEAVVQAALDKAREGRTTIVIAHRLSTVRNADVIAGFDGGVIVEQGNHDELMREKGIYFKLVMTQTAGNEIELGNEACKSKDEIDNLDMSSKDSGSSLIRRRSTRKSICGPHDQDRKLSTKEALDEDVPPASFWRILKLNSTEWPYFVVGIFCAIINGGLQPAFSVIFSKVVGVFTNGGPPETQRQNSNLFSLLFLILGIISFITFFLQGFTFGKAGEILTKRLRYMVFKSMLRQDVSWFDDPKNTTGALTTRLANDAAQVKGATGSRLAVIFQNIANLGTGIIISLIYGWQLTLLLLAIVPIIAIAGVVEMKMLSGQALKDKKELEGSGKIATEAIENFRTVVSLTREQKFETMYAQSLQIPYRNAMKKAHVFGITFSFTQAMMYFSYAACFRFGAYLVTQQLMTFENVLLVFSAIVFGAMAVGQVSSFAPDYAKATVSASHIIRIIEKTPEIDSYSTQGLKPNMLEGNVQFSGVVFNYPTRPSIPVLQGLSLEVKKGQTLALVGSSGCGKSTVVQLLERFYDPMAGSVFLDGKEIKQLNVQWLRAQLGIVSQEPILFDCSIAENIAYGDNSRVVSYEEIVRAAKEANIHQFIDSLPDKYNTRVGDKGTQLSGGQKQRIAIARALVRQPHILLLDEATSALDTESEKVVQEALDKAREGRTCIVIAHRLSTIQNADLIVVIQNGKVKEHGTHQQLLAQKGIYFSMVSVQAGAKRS

As for `CC(=O)O[C@H]1C(=O)[C@@]2(C)[C@H]([C@H](OC(=O)c3ccccc3)[C@]3(O)C[C@H](OC(=O)[C@H](O)[C@@H](NC(=O)c4ccccc4)c4ccccc4)C(C)=C1C3(C)C)[C@]1(OC(C)=O)CO[C@@H]1C[C@@H]2O` [PACLITAXEL], the Activity result in data set [1] and in data set [2] was “substrate [+]” each time.
